The text below walks through data of patent publication US20250262201A1, “COMPOUNDS AND METHODS USEFUL FOR STABILIZING PHENYLALANINE HYDROXYLASE MUTATIONS” (Agios Pharmaceuticals, Inc., priority 2022, published 2025).

This assay has as its target T1, human PAH with the R408W mutation (Homo sapiens, UniProt P00439, R408W).
T1 construct: expressed in transfected cells
T1 sequence (P00439 1-452 R408W): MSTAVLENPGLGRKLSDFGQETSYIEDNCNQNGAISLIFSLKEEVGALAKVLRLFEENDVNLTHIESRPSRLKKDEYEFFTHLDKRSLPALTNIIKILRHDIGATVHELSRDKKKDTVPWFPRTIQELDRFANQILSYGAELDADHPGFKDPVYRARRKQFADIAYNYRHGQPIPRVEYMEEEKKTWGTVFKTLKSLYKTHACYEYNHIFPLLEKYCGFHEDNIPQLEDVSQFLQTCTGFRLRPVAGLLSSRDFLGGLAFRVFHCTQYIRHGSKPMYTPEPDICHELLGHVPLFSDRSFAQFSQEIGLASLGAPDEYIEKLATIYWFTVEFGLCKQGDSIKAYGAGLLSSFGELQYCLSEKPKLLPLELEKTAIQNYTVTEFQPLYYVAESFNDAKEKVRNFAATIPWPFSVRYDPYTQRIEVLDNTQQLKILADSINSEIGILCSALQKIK
Briefly: Cell Based Phenylalanine Flux Assay. Conditions: A375 cells expressing human R408W PAH; 24 hrs compound incubation; 13C-Tyrosine by LC-MS; average where tested multiple times; read-out: AC50.
Consider `Cc1nc(C2CC2)oc1C(=O)N1CCc2[nH]cnc2C1c1ccc2ccccc2n1` (stereo in doubt) [Example 36, (S)-(2-cyclopropyl-4-methyloxazol-5-yl)(4-(quinolin-2-yl)-6,7-dihydro-1H-imidazo[4,5-c]pyridin-5(4H)-yl)methanone], for which the concentration at half-maximal activity (AC50) is > 5000 nM. Next, `O=C(c1ocnc1C(F)(F)F)N1CCc2[nH]cnc2C1c1ccc2ccccc2n1` (stereo in doubt) [Example 37, (R)-(4-(quinolin-2-yl)-6,7-dihydro-1H-imidazo[4,5-c]pyridin-5(4H)-yl)(4-(trifluoromethyl)oxazol-5-yl)methanone]: < 500 nM. Turning to `O=C(c1ocnc1C(F)(F)F)N1CCc2[nH]cnc2C1c1ccc2ccccc2n1` (stereo in doubt) [Example 38, (S)-(4-(quinolin-2-yl)-6,7-dihydro-1H-imidazo[4,5-c]pyridin-5(4H)-yl)(4-(trifluoromethyl)oxazol-5-yl)methanone], the half-maximal activity concentration (AC50) is 1000 to 5000 nM. Next, `CC(F)(F)c1ncc(C(=O)N2CCc3[nH]cnc3C2c2ccc3ccccc3n2)s1` (stereo in doubt) [Example 39, (R)-(2-(1,1-difluoroethyl)thiazol-5-yl)(4-(quinolin-2-yl)-6,7-dihydro-1H-imidazo[4,5-c]pyridin-5(4H)-yl)methanone]: 500 to 1000 nM.

Consider `CC(F)(F)c1ncc(C(=O)N2CCc3[nH]cnc3C2c2ccc3ccccc3n2)s1` (stereo in doubt) [Example 40, (S)-(2-(1,1-difluoroethyl)thiazol-5-yl)(4-(quinolin-2-yl)-6,7-dihydro-1H-imidazo[4,5-c]pyridin-5(4H)-yl)methanone], for which the AC50 is 1000 to 5000 nM. On to `O=C(CC1CC1)N1CCc2[nH]cnc2C1c1ccc2ccccc2n1` (stereo in doubt) [Example 41, (R)-2-cyclopropyl-1-(4-(quinolin-2-yl)-6,7-dihydro-1H-imidazo[4,5-c]pyridin-5(4H)-yl)ethanone], for which the AC50 was < 500 nM. For `O=C(CC1CC1)N1CCc2[nH]cnc2C1c1ccc2ccccc2n1` (stereo in doubt) [Example 42, (S)-2-cyclopropyl-1-(4-(quinolin-2-yl)-6,7-dihydro-1H-imidazo[4,5-c]pyridin-5(4H)-yl)ethanone] the value was 1000 to 5000 nM; for `O=C(c1oc(-c2ccccn2)nc1C1CC1)N1CCc2[nH]cnc2C1c1ccc2ccccc2n1` (stereo in doubt) [Example 43, (R)-(4-cyclopropyl-2-(pyridin-2-yl)oxazol-5-yl)(4-(quinolin-2-yl)-6,7-dihydro-1H-imidazo[4,5-c]pyridin-5(4H)-yl)methanone], < 500 nM; for `O=C(c1oc(-c2ccccn2)nc1C1CC1)N1CCc2[nH]cnc2C1c1ccc2ccccc2n1` (stereo in doubt) [Example 44, (S)-(4-cyclopropyl-2-(pyridin-2-yl)oxazol-5-yl)(4-(quinolin-2-yl)-6,7-dihydro-1H-imidazo[4,5-c]pyridin-5(4H)-yl)methanone], 1000 to 5000 nM.

With `O=C(c1nnc(-c2ccccn2)o1)N1CCc2[nH]cnc2C1c1ccc2ccccc2n1` (stereo in doubt) [Example 45, (R)-(5-(pyridin-2-yl)-1,3,4-oxadiazol-2-yl)(4-(quinolin-2-yl)-6,7-dihydro-1H-imidazo[4,5-c]pyridin-5(4H)-yl)methanone], the concentration at half-maximal activity (AC50) was < 500 nM.

`O=C(c1nnc(-c2ccccn2)o1)N1CCc2[nH]cnc2C1c1ccc2ccccc2n1` (stereo in doubt) [Example 46, (S)-(5-(pyridin-2-yl)-1,3,4-oxadiazol-2-yl)(4-(quinolin-2-yl)-6,7-dihydro-1H-imidazo[4,5-c]pyridin-5(4H)-yl)methanone]: the AC50 was > 5000 nM.

On to `Cn1cc(-c2nnc(C(=O)N3CCc4[nH]cnc4C3c3ccc4ccccc4n3)o2)cn1` (stereo in doubt) [Example 47, (R)-(5-(1-methyl-1H-pyrazol-4-yl)-1,3,4-oxadiazol-2-yl)(4-(quinolin-2-yl)-6,7-dihydro-1H-imidazo[4,5-c]pyridin-5(4H)-yl)methanone], for which the concentration at half-maximal activity (AC50) lay in the range of 500 to 1000 nM. Next, `Cn1cc(-c2nnc(C(=O)N3CCc4[nH]cnc4C3c3ccc4ccccc4n3)o2)cn1` (stereo in doubt) [Example 48, (S)-(5-(1-methyl-1H-pyrazol-4-yl)-1,3,4-oxadiazol-2-yl)(4-(quinolin-2-yl)-6,7-dihydro-1H-imidazo[4,5-c]pyridin-5(4H)-yl)methanone]: > 5000 nM; `O=C([C@H]1CC1(F)F)N1CCc2[nH]cnc2[C@@H]1c1ccc2ccccc2n1` (stereo in doubt) [Example 49, ((R)-2,2-difluorocyclopropyl)((R)-4-(quinolin-2-yl)-6,7-dihydro-1H-imidazo[4,5-c]pyridin-5(4H)-yl)methanone]: < 500 nM. As to `O=C([C@@H]1CC1(F)F)N1CCc2[nH]cnc2C1c1ccc2ccccc2n1` (stereo in doubt) [Example 50, ((S)-2,2-difluorocyclopropyl)((S)-4-(quinolin-2-yl)-6,7-dihydro-1H-imidazo[4,5-c]pyridin-5(4H)-yl)methanone], the half-maximal activity concentration (AC50) is > 5000 nM.

Regarding `O=C(c1ocnc1C(F)F)N1CCc2nc[nH]c2C1c1ccc2ccccc2n1` (stereo in doubt) [Example 51, (R)-(4-(difluoromethyl)oxazol-5-yl)(4-(quinolin-2-yl)-6,7-dihydro-3H-imidazo[4,5-c]pyridin-5(4H)-yl)methanone], the concentration at half-maximal activity (AC50) is < 500 nM. Next, `O=C(c1ocnc1C(F)F)N1CCc2nc[nH]c2C1c1ccc2ccccc2n1` (stereo in doubt) [Example 52, (S)-(4-(difluoromethyl)oxazol-5-yl)(4-(quinolin-2-yl)-6,7-dihydro-3H-imidazo[4,5-c]pyridin-5(4H)-yl)methanone]: 1000 to 5000 nM; `O=C(CC1CC(F)C1)N1CCc2[nH]cnc2C1c1ccc2ccccc2n1` (stereo in doubt) [Example 53, (R)-2-(3-fluorocyclobutyl)-1-(4-(quinolin-2-yl)-6,7-dihydro-1H-imidazo[4,5-c]pyridin-5(4H)-yl)ethanone]: < 500 nM; `O=C(CC1CC(F)C1)N1CCc2[nH]cnc2C1c1ccc2ccccc2n1` (stereo in doubt) [Example 54, (S)-2-(3-fluorocyclobutyl)-1-(4-(quinolin-2-yl)-6,7-dihydro-1H-imidazo[4,5-c]pyridin-5(4H)-yl)ethanone]: 1000 to 5000 nM. For `O=C(N1CCc2[nH]cnc2C1c1ccc2ccccc2n1)C(F)(F)C1(O)CCC1` (stereo in doubt) [Example 55, (R)-2,2-difluoro-2-(1-hydroxycyclobutyl)-1-(4-(quinolin-2-yl)-6,7-dihydro-1H-imidazo[4,5-c]pyridin-5(4H)-yl)ethanone] the value was 500 to 1000 nM.

With `O=C(N1CCc2[nH]cnc2C1c1ccc2ccccc2n1)C(F)(F)C1(O)CCC1` (stereo in doubt) [Example 56, (S)-2,2-difluoro-2-(1-hydroxycyclobutyl)-1-(4-(quinolin-2-yl)-6,7-dihydro-1H-imidazo[4,5-c]pyridin-5(4H)-yl)ethanone], the AC50 fell in the range of 1000 to 5000 nM. Next, `N#Cc1ncoc1C(=O)N1CCc2[nH]cnc2C1c1ccc2ccccc2n1` (stereo in doubt) [Example 57, (R)-5-(4-(quinolin-2-yl)-4,5,6,7-tetrahydro-1H-imidazo[4,5-c]pyridine-5-carbonyl)oxazole-4-carbonitrile]: < 500 nM. Consider `N#Cc1ncoc1C(=O)N1CCc2[nH]cnc2C1c1ccc2ccccc2n1` (stereo in doubt) [Example 58, (S)-5-(4-(quinolin-2-yl)-4,5,6,7-tetrahydro-1H-imidazo[4,5-c]pyridine-5-carbonyl)oxazole-4-carbonitrile], for which the AC50 lay in the range of 1000 to 5000 nM.

In the case of `O=C(CC1(O)CCC1)N1CCc2[nH]cnc2C1c1ccc2ccccc2n1` (stereo in doubt) [Example 59, (R)-2-(1-hydroxycyclobutyl)-1-(4-(quinolin-2-yl)-6,7-dihydro-1H-imidazo[4,5-c]pyridin-5(4H)-yl)ethanone], the concentration at half-maximal activity (AC50) was < 500 nM.

As to `O=C(CC1(O)CCC1)N1CCc2[nH]cnc2C1c1ccc2ccccc2n1` (stereo in doubt) [Example 60, (S)-2-(1-hydroxycyclobutyl)-1-(4-(quinolin-2-yl)-6,7-dihydro-1H-imidazo[4,5-c]pyridin-5(4H)-yl)ethanone], the concentration at half-maximal activity (AC50) is 1000 to 5000 nM. For `O=C(c1cnc(-c2ccccn2)o1)N1CCc2[nH]cnc2C1c1ccc2ccccc2n1` (stereo in doubt) [Example 61, (R)-(2-(pyridin-2-yl)oxazol-5-yl)(4-(quinolin-2-yl)-6,7-dihydro-1H-imidazo[4,5-c]pyridin-5(4H)-yl)methanone] the value was 500 to 1000 nM. As to `O=C(c1cnc(-c2ccccn2)o1)N1CCc2[nH]cnc2C1c1ccc2ccccc2n1` (stereo in doubt) [Example 62, (S)-(2-(pyridin-2-yl)oxazol-5-yl)(4-(quinolin-2-yl)-6,7-dihydro-1H-imidazo[4,5-c]pyridin-5(4H)-yl)methanone], the AC50 was > 5000 nM. For `O=C(c1nnc(-c2cnn(C(F)F)c2)o1)N1CCc2[nH]cnc2C1c1ccc2ccccc2n1` (stereo in doubt) [Example 63, (R)-(5-(1-(difluoromethyl)-1H-pyrazol-4-yl)-1,3,4-oxadiazol-2-yl)(4-(quinolin-2-yl)-6,7-dihydro-1H-imidazo[4,5-c]pyridin-5(4H)-yl)methanone] the value was < 500 nM.

For orientation: AC50 means the concentration giving half of the maximal activity seen.
